From patent US6723897B2, “Methods for controlling gibberellin levels” (Monsanto Technology, LLC, priority 1998, dated 2004)

Key:
[1] = test system: constitutively GA-deficient transgenic dwarf soybean line 719; test: Experiment I greenhouse test, seed imbibition, GA-deficient soybean; assay type: in vivo, Glycine max; parameters: Observation on Transgenic Line 719: key: −1: treated plants are shorter as compared to untreated plants; 0: treated plants had the same stature as untreated plants; 1: treated plants are slightly elongated as compared to untreated plants; 2: treated plants are moderately elongated as compared to untreated plants; 3: treated plants are highly elongated as compared to untreated plants; 4: treated plants are extremely elongated as compared to untreated plants; conditions: 0.25 mg/ml; for effect in both the constitutive transgenic dwarf and wild-type soybean lines: imbibition, lines 719 and A3237; for Observation on Transgenic Line 719: seeds imbibed 5 hours
Description: Seeds are covered with 0.5″ of vermiculite.

[2] = test system: wild-type soybean line A3237; test: Experiment I greenhouse test, seed imbibition, wild-type soybean; conditions: 0.25 mg/ml; seeds imbibed 5 hours
[3] = test system: constitutively GA-deficient transgenic dwarf soybean line 719; test: Experiment IV field test, seed imbibition, compacted soil; assay type: in vivo, Glycine max; conditions: for No. of Dwarfs Not Rescued / Total Plants: imbibed 8 hours; for Total Plants: 25 seeds planted; for % of Dwarfs Rescued: relative to 8.5 true dwarfs per plot; for field result on line 719 in words: over the rates tested (0.0025-0.25 mg/ml)
Description: The objective of these experiments is to determine if there is a greenhouse to field translation of results with selected GA compounds with respect to rescue of constitutively GA-deficient transgenic dwarf soybeans and elongation of wild-type plants. […] For the first field trial, the solutions previously used for the second greenhouse test, and stored in the freezer, are employed. […] For comparison, freshly prepared solutions of GA3 are also employed. The compounds tested included kaurenoic acid, fresh GA3, stored GA3, GA3-3-acetate, GA5, GA9, and GA12. […] Seeds of line […] are imbibed for 8 hours. Untreated dry seeds served as controls. After imbibition, the remaining solutions are returned to the freezer. Seeds are kept on the benchtop at room temperature overnight. […] Untreated dry seeds served as controls. Following planting line 719, all plots (both […] and line 719) are compacted by driving an all-terrain vehicle over the planted rows twice, and watered. All GA solutions are discarded. The results are shown in Table 15 for constitutively GA-deficient transgenic dwarf line 719 only as insufficient […] germinated to make any useful observations. Observations included number of plants that germinated, number rescued, and visual observations. Two points should be noted concerning the data in Table 15. […] Next, the number of dwarfs not rescued in any treatment is subtracted from 8.5.

[4] = test system: constitutively GA-deficient transgenic dwarf soybean line 719; test: Fifth and sixth field tests, emergence after seed imbibition; assay type: in vivo, Glycine max; conditions: for Total Emerged: 50 seeds imbibed 5 hours
Procedure: Fresh stock solutions of compounds are prepared for this test. Kaurenoic acid is tested at 0.025 and 0.25 mg/ml; GA3 is tested at 0.025, 0.25, and 0.5 mg/ml; GA3-3-acetate at 0.025 and 0.25 mg/ml; GA5 at 0.025 and 0.25 mg/ml; GA9 at 0.025 and 0.04 mg/ml; and GA12 at 0.025 and 0.25 mg/ml. Stock solutions are prepared in ethanol in 50 ml plastic centrifuge tubes; deionized water is then added to make up the volumes to 30 ml. The final solutions contained 300 μl ethanol in 30 mls. […] Seeds are imbibed for 6 hours, and planted 1″ deep in a single row in moist to wet soil. They are then covered with dry soil, and the row is compacted twice with an all-terrain vehicle. Untreated dry seeds served as controls. The GA solutions are placed on dry ice until reuse the next day.
The next day, additional seeds of constitutive transgenic dwarf line 719 (50 seeds/treatment) are imbibed in the remaining treatment solutions for 5 hours, and planted in moist soil. The rows are compacted twice.

[5] = test system: GA-deficient transgenic soybean line 719 (R5); test: Hilum treatment of soybean seeds, seedling growth and development, GA-deficient soybean; assay type: in vivo, Glycine max; parameters: key to Emergence timing / Hypocotyl length (6 DAP) / 1st internode length (12 DAP) / 3rd internode length (20 DAP) / 2nd internode length (12 DAP): pos: emergence faster/stem segment longer than controls; 0: emergence timing/stem segment length similar to controls; neg: emergence slower/stem segment shorter than controls; conditions: for 1st internode length (12 DAP) / Emergence timing / Hypocotyl length (6 DAP): single rate per compound 8.3-16.5 μg/seed; for 2nd internode length (12 DAP) / 3rd internode length (20 DAP): single rate per compound 9.7-16.5 μg/seed; for stem elongation past the first internode: initial seed dose approximately 10 μg/seed
Summary of the method: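 GA compounds dissolved in ethanol were applied as 1 μl droplets, each dried before the next, to the hilum of GA-deficient transgenic line 719 (R5) or wild-type soybean seeds; ethanol alone served as control. Emergence was scored over time as cotyledons at or above soil level, with growth measured after prolonged development.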

[6] = L719, hilum treatment, rate response

SMILES | effect in both the constitutive transgenic dwarf and wild-type soybean lines [1] | Observation on Transgenic Line 719 [1] | Observation on Wild-Type Line A3237 [2] | field result on line 719 in words [3] | No. of Dwarfs Not Rescued ([3]; stored solution 0.0025 mg/ml) | Total Plants ([3]; stored solution 0.0025 mg/ml) | % of Dwarfs Rescued ([3]; stored solution 0.0025 mg/ml) | No. of Dwarfs Not Rescued ([3]; stored solution 0.025 mg/ml) | Total Plants ([3]; stored solution 0.025 mg/ml) | % of Dwarfs Rescued ([3]; stored solution 0.025 mg/ml) | Visual Observations on Transgenic Line 719 ([3]; stored solution 0.25 mg/ml) | No. of Dwarfs Not Rescued ([3]; stored solution 0.25 mg/ml) | Total Plants ([3]; stored solution 0.25 mg/ml) | % of Dwarfs Rescued ([3]; stored solution 0.25 mg/ml) | Total Emerged ([4]; 0.025 mg/ml) | Total Emerged ([4]; 0.25 mg/ml) | Lowest rate where biological activity is observed, 1st internode length (10 DAP) [5, 6] | 1st internode length (12 DAP) ([5]; L719, hilum treatment) | Emergence timing ([5]; L719, hilum treatment) | Hypocotyl length (6 DAP) ([5]; L719, hilum treatment) | further results
C=C1C[C@]23C[C@@]1(O)CC[C@H]2[C@@]12C=C[C@H](O)[C@@](C)(C(=O)O1)[C@H]2[C@@H]3C(=O)O [GA3, gibberellic acid] | excessive elongation | 3 | 3 | poor emergence at all rates | 0 | 14 | 100% | 0 | 9 | 100% | Extremely elongated plants | 0 | 7 | 100% | 15 | 9 | 10 μg/seed | pos | pos | pos | No. of Dwarfs Not Rescued ([3]; fresh solution 0.0025 mg/ml): 0; Total Plants ([3]; fresh solution 0.0025 mg/ml): 13; % of Dwarfs Rescued ([3]; fresh solution 0.0025 mg/ml): 100%; No. of Dwarfs Not Rescued ([3]; fresh solution 0.025 mg/ml): 1; Total Plants ([3]; fresh solution 0.025 mg/ml): 13; % of Dwarfs Rescued ([3]; fresh solution 0.025 mg/ml): 88.2%; No. of Dwarfs Not Rescued ([3]; fresh solution 0.25 mg/ml): 0; Total Plants ([3]; fresh solution 0.25 mg/ml): 1; % of Dwarfs Rescued ([3]; fresh solution 0.25 mg/ml): 100%; Visual Observations on Transgenic Line 719 ([3]; stored solution 0.025 mg/ml): Extremely elongated plants; Total Emerged ([4]; 0.5 mg/ml): 1; Lowest rate where biological activity is observed, emergence timing [5, 6]: 0.1 μg/seed; Lowest rate where biological activity is observed, hypocotyl length (5 DAP) [5, 6]: 0.1 μg/seed; 2nd internode length (12 DAP) ([5]; L719, hilum treatment): 0; 3rd internode length (20 DAP) ([5]; L719, hilum treatment): 0; stem elongation past the first internode ([5]; hilum): not active beyond the first internode
C=C1C[C@]23C[C@@]1(O)CC[C@H]2[C@@]12CC=C[C@@](C)(C(=O)O1)[C@H]2[C@@H]3C(=O)O [GA5] | excessive elongation | 4 | 4 | slight to excessive elongation, and no uniformity in plant height | 8 | 25 | 5.9% | 0 | 20 | 100% | Extremely elongated plants | 0 | 7 | 100% | 21 | 3 | 1 μg/seed | pos | pos | pos | Visual Observations on Transgenic Line 719 ([4]; 0.025 mg/ml): good emergence with good rescue; Lowest rate where biological activity is observed, 3rd internode length (20 DAP) [5, 6]: >1 μg/seed; Lowest rate where biological activity is observed, emergence timing [5, 6]: 1 μg/seed; Lowest rate where biological activity is observed, hypocotyl length (5 DAP) [5, 6]: 0.1 μg/seed; 2nd internode length (12 DAP) ([5]; L719, hilum treatment): pos; 3rd internode length (20 DAP) ([5]; L719, hilum treatment): pos; rate giving increased internode elongation at internode number 3 ([5]; hilum): greater than or equal to 1 μg/seed; biological activity on the first internode of line 719 compared to GA3 and GA9 ([5]; hilum, rate response): approximately 10 times more; stem elongation past the first internode ([5]; hilum): measurable increases in internode length up to the third internode
C=C1C[C@]23C[C@@]1(O)CC[C@H]2[C@@]12C=C[C@H](OC(C)=O)[C@@](C)(C(=O)O1)[C@H]2[C@@H]3C(=O)O [GA3-3-acetate] | excessive elongation | 3 | 3 | excessive elongation, and no uniformity in plant height | 0 | 21 | 100% | 0 | 1 | 100% | Extremely elongated plants | 0 | 3 | 100% | 2 | 1 | – | pos | pos | pos | Visual Observations on Transgenic Line 719 ([4]; 0.25 mg/ml): Overelongation
